Results as given in US9597407B2, “Targeted antimicrobial moieties” (C3 Jian, Inc., priority 2009, dated 2017).
Entries after “also recorded” stand apart in the source; their conditions may differ. Ends that are not written are not given here.

Legend:
bacteria = assay: Binding of targeting peptides to microorganisms (Table 3); details: preferably 1x PBS; for Target(s) (microorganisms bound by the targeting peptide) / Target(s) (microorganism bound by the targeting peptide): peptide binding in aqueous buffers that varied depending on peptide solubility
microorganisms [1] = assay: Morphology, biofilm and growth disruption by peptides (Table 5); assay type: cell-based; design: key: A: Peptide aggregates; B: Less hyphal formation; Clumps; Diffuse clumps and small polyps; F: Diffuse growth; H: Thin; I: Growth inhibition; Microcolony formation; Rippled; Small polyps; Thick; W: Halo formation on top, microlonies on bottom
From the text: In certain embodiments peptides that induce alterations in phenotype or other biological activities can also be used as antimicrobial effector moieties.

microorganisms [2] = assay: Peptide activities: binding, antimicrobial, growth or phenotype altering (Table 8)
From the text: In certain embodiments, peptides described herein can have multiple activities. Thus for example, a peptide can have both binding/targeting activity and antimicrobial activity. Such peptides can be used, e.g., in a chimeric construct, for any or all of these properties. Thus, for example, a peptide designated “B” in Table 8 can be used as a targeting peptide. If it is also designated G or M it can also be used for antimicrobial activity.

[3] = microorganism bound by the targeting peptide, binding in aqueous buffers chosen by peptide solubility

Question: With “PF-382 (KYKCSWCKRVYTLRKDHKTAR; Peptide with targeting and/or antimicrobial activity)” as the substance, how does the “Target(s)” value (bacteria; [3]) read?
Answer: The value was “S. epidermidis; also recorded: B. subtilis; also recorded: B. fragilis; also recorded: E. coli; also recorded: P. aeruginosa; also recorded: E. faecalis; also recorded: C. jeikeium; also recorded: C. jejuni”.

Question: And the “Organism, effect” value (microorganisms [1]; MRSA)?
Answer: Its value is “MRSA (M)”.

Question: And the Activities (microorganisms [2])?
Answer: The Activities was “G B”.

Question: How did the “Target(s) (microorganisms bound by the targeting peptide)” value (bacteria) turn out when PF-515 (DKSTQDKDIKQAKLLAQELGL-NH2) was run?
Answer: Its value is “S. epidermidis; also recorded: C. albicans; also recorded: S. pneumoniae; also recorded: C. jeikeium”.

Question: And the “Organism, effect (morphology, biofilm and growth disruption)” value (microorganisms [1]; S. pneumoniae)?
Answer: The value was “S. pneumoniae (H)”.

Question: What about the Activities (microorganisms [2]) of the same substance?
Answer: The Activities was “G B”.

Question: With “PF-746 (chain 1 FLGNSQYFTRK; chain 2 FLGNSQYFTRK; Peptide with targeting and/or antimicrobial activity)” as the substance, how does the “Target(s) (microorganism bound by the targeting peptide)” value (bacteria) read?
Answer: The value was “S. epidermidis; also recorded: M. luteus; also recorded: E. coli; also recorded: C. albicans; also recorded: S. pneumoniae; also recorded: E. faecalis; also recorded: C. jeikeium”.

Question: What about the “Organism, effect (morphology, biofilm and growth disruption)” value (microorganisms [1]; E. coli) of the same substance?
Answer: The value was “E. coli (C)”.

Question: What about the “Organism, effect (morphology, biofilm and growth disruption)” value (microorganisms [1]; M. luteus) of the same substance?
Answer: The value was “M. luteus (C)”.

Question: And the “Organism, effect (morphology, biofilm and growth disruption)” value (microorganisms [1]; MRSA)?
Answer: Its value is “MRSA (C)”.

Question: And the “Organism, effect (morphology, biofilm and growth disruption)” value (microorganisms [1]; P. aeruginosa)?
Answer: The value was “P. aeruginosa (A)”.

Question: And the “Organism, effect (morphology, biofilm and growth disruption)” value (microorganisms [1]; S. epidermidis)?
Answer: Its value is “S. epidermidis (C)”.

Question: What about the “Organism, effect (morphology, biofilm and growth disruption)” value (microorganisms [1]; S. mutans) of the same substance?
Answer: Its value is “S. mutans (D)”.

Question: And the “Organism, effect (morphology, biofilm and growth disruption)” value (microorganisms [1]; S. pneumoniae)?
Answer: Its value is “S. pneumoniae (C)”.

Question: And the Activities (microorganisms [2])?
Answer: The Activities was “G B”.

Question: “PF-446 (SGNEKV; Peptide with targeting and/or antimicrobial activity)” was tested. Which “Target(s) (microorganisms bound by the targeting peptide)” value (bacteria) did it give?
Answer: The value was “M. luteus; also recorded: C. jeikeium”.

Question: And the “Organism, effect (morphology, biofilm and growth disruption)” value (microorganisms [1]; S. pneumoniae)?
Answer: The value was “S. pneumoniae (H)”.

Question: What about the Activities (microorganisms [2]) of the same substance?
Answer: Its Activities is “G B”.

Question: Which “Target(s) (microorganism bound by the targeting peptide)” value (bacteria) does the source give for “PF-737 (chain 1 KSSGSSASASSTAGGSSSK; chain 2 KSSGSSASASSTAGGSSSK; Peptide with targeting and/or antimicrobial activity)” here?
Answer: Its value is “S. epidermidis; also recorded: S. pneumoniae”.

Question: And the “Organism, effect (morphology, biofilm and growth disruption)” value (microorganisms [1]; S. pneumoniae)?
Answer: Its value is “S. pneumoniae (D)”.

Question: What about the Activities (microorganisms [2]) of the same substance?
Answer: The Activities was “G B”.

Question: Which results are given for “PF-572 (WRASKGLPGFKAG; Peptide with targeting and/or antimicrobial activity)”?
Answer: Target(s) (microorganisms bound by the targeting peptide) (bacteria): S. epidermidis; also recorded: M. luteus; also recorded: E. coli; also recorded: S. pneumoniae; also recorded: C. jeikeium; Organism, effect (morphology, biofilm and growth disruption) (microorganisms [1]; B. subtilis): B. subtilis (D); Organism, effect (morphology, biofilm and growth disruption) (microorganisms [1]; S. pneumoniae): S. pneumoniae (R); Activities (microorganisms [2]): G B

Question: “PF-370 (VIFLHKESGNLKEIFY; Peptide with targeting and/or antimicrobial activity)” was tested. Which “Target(s)” value (bacteria; [3]) did it give?
Answer: The value was “S. epidermidis; also recorded: E. coli; also recorded: P. aeruginosa; also recorded: E. faecalis; also recorded: C. jejuni”.

Question: What about the “Organism, effect” value (microorganisms [1]; E. coli) of the same substance?
Answer: The value was “E. coli (R)”.

Question: What about the “Organism, effect” value (microorganisms [1]; MRSA) of the same substance?
Answer: The value was “MRSA (C)”.

Question: What about the “Organism, effect” value (microorganisms [1]; S. epidermidis) of the same substance?
Answer: The value was “S. epidermidis (C)”.

Question: And the Activities (microorganisms [2])?
Answer: Its Activities is “G B”.

Question: Which “Target(s)” value (bacteria; [3]) does the source give for “PF-362 (NIERILKEKVWMIRCVE; Peptide with targeting and/or antimicrobial activity)” here?
Answer: The value was “S. epidermidis; also recorded: E. coli; also recorded: P. aeruginosa; also recorded: C. albicans; also recorded: E. faecalis; also recorded: C. jejuni”.

Question: What about the “Organism, effect” value (microorganisms [1]; E. coli) of the same substance?
Answer: Its value is “E. coli (C)”.

Question: And the “Organism, effect” value (microorganisms [1]; MRSA)?
Answer: The value was “MRSA (C)”.

Question: What about the Activities (microorganisms [2]) of the same substance?
Answer: Its Activities is “G B”.

Question: For “PF-048 (LYFAFKKYQERVNQAPNIEY; Peptide with targeting and/or antimicrobial activity)”, which “Target(s)” value (bacteria; microorganism the targeting peptide binds, binding in aqueous buffers that varied with peptide solubility) is on record?
Answer: The value was “S. epidermidis and M. luteus and E. coli and MRSA and C. jeikeium and C. jejuni”.

Question: And the “Organism, effect” value (microorganisms [1]; C. jeikeium)?
Answer: The value was “C. jeikeium (S)”.

Question: And the “Organism, effect” value (microorganisms [1]; MRSA)?
Answer: Its value is “MRSA (W)”.

Question: And the “Organism, effect” value (microorganisms [1]; S. epidermidis)?
Answer: The value was “S. epidermidis (D)”.

Question: And the Activities (microorganisms [2])?
Answer: The Activities was “G B”.
